# Experimental data reported in PubChem BioAssay AID651563 (Sanford-Burnham Center for Chemical Genomics, 2012).
# “And” between values parts separate entries of the source, which are not always exact repeats. Identical values can stand only once. The source made the active and inactive calls.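 The calls were made as follows: active = compounds whose IC50 is 20 micromolar or lower, counted as confirmed SKN-1 reporter blockers; inactive = the rest.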
# Tested on: C. elegans VP596 Pgst-4::GFP/RFP ratio, acrylamide, 24 h
# Assay: inhibition of acrylamide-induced Pgst-4::GFP reporter, dose response, SKN-1 inhibitor project, whole organism, GFP/RFP fluorescence ratio, set 2, strain VP596 (AID 651563);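 also: red signal is driven by the dop-3 promoter and serves as the normalizer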
row,Compound,IC50
1,Clc1ccsc1-c1ccc2ccccc2n1,20.3 µM (inactive)
2,Cc1ccc(-c2nc(-c3ccncc3)no2)c(C)c1,> 100 µM (inactive)
3,Clc1ccc(-c2nnc(-c3ccco3)o2)cc1,15.8 µM
4,C=CCSc1ncc(-c2ccccc2)cn1,27.2 µM (inactive)
5,Clc1ccc(CSc2ncn(-c3ccccc3)n2)cc1,11.2 µM
6,O=C(C=Cc1ccccc1)CC(c1ccccc1)N1CCOCC1 (stereo unspecified),10.2 µM
7,O=C(C=Cc1cccs1)c1ccc(Cl)s1,17.7 µM
8,CN1CCN(c2ccc(NC(=O)c3ccc(Oc4ccccc4)cc3)cc2)CC1,12.5 µM
9,O=C(NC(=S)Nc1ccc(CN2CCCCC2)cc1)c1cc2ccccc2o1,94.9 µM (inactive)
10,CCOc1cc(CNC2CCCC2)cc(Cl)c1OCc1ccc(F)cc1,2.85 µM
11,CSc1ccc(-c2cc(=O)c3ccccc3o2)cc1,17.5 µM
12,O=C1/C(=C/c2ccccc2)CCCc2ccccc21,31.6 µM (inactive)
13,c1ccc(-n2nnc(-c3nccs3)n2)cc1,> 100 µM (inactive)
14,CC(C)c1ccc(-c2nc3ccccc3s2)cc1,> 100 µM (inactive)
15,O=C1c2cc(Br)ccc2OC2C=CC=CC12 (stereo unspecified),> 100 µM (inactive)
16,c1ccc(-c2nc(-c3ccncc3)no2)cc1,24.7 µM (inactive)
17,Clc1ncc(CSc2ccccc2)s1,> 100 µM (inactive)
18,Clc1ccc(-c2nnc(SCc3ccon3)o2)c(Cl)c1,> 100 µM (inactive)
19,c1ccc2sc(SCc3ccc(-c4nnco4)cc3)nc2c1,11.9 µM
20,O=C(c1ccc(Cl)cc1)c1cc([N+](=O)[O-])ccc1N1CCOCC1,> 100 µM (inactive)
21,CCCn1nc2cc(C(=O)NCc3ccc(OC(F)(F)F)cc3)ccc2c1OCC,25.4 µM (inactive)
22,CC(C)(C)N=C1NN=C(c2ccc(Cl)cc2)CS1,25.9 µM (inactive)
23,CC1=NN(c2ccccc2)C(=O)/C1=C\C=C1/N(C)c2ccccc2C1(C)C,14.4 µM
24,O=C(/C=C/c1ccco1)Nc1nc(-c2ccccc2)cs1,42.6 µM (inactive)
25,O=[N+]([O-])c1ccc(COc2ccc(CN3CCCCC3)cc2)cc1,8.89 µM

row,Compound,IC50
1,O=C(Sc1ccc(Cl)cc1)c1ccccn1,> 100 µM (inactive)
2,Clc1cccc(CSc2ncn(-c3ccccc3)n2)c1,37.5 µM (inactive)
3,CCOc1cc(CNCCSc2nnnn2C)cc(Br)c1OCc1ccc(F)cc1,2.73 µM
4,CN(C)C(CNC(=O)CCc1nc2cc(Cl)ccc2n(Cc2ccccc2)c1=O)c1ccccc1 (stereo unspecified),26.1 µM (inactive)
5,O=C(Nc1ccc(OC(F)F)c(Cl)c1)c1ccccn1,5.09 µM
6,O=C(/C=C/c1ccc(Cl)cc1)Nc1ccc(CN2CCOCC2)cc1,23.3 µM (inactive)
7,C(=C\c1nnc(-c2cccs2)o1)/c1ccccc1,15.9 µM
8,Fc1ccc(-c2nc3ccc(Cl)cn3c2Cc2ccsc2)cc1,> 100 µM (inactive)
9,Cc1cc(OCc2cccc(Cl)c2)c(C)cc1CN1CCOCC1,15.2 µM
10,Cc1ccccc1-c1noc(-c2cccs2)n1,9.31 µM
11,c1ccc(-c2cnc(-c3ccccc3)nn2)cc1,> 100 µM (inactive)
12,c1ccc(-c2csc(-c3cccnc3)n2)cc1,> 100 µM (inactive)
13,O=C(/C=C/Nc1ccc(F)c(F)c1)c1cccs1,11.4 µM
14,Cc1ccc(NC(=O)c2ccc(F)cc2F)cc1,> 100 µM (inactive)
15,CCn1nccc1C(=O)Nc1ccc(Cl)c(Cl)c1,87.8 µM (inactive)
16,CC/C(=C\c1ccc(Cl)cc1)c1ccncc1,28.2 µM (inactive)
17,Fc1ccc(-n2nnc(-c3cccnc3Cl)n2)cc1,8.82 µM
18,O=C1NC2C(=CC(O)C(O)C2O)c2cc3c(cc21)OCO3 (stereo unspecified),> 100 µM (inactive)
19,Fc1ccccc1OCCSc1nc2ccccc2o1,60.7 µM (inactive)
20,O=C(/C(C=Nc1ccc(Br)cc1)=C(/O)c1ccco1)C(F)(F)F,21 µM (inactive)
21,O=[N+]([O-])c1ccc(Nc2ccccc2)c2nonc12,49.6 µM (inactive)
22,Clc1ccc(-c2nnc(-c3ccccc3)o2)cn1,> 100 µM (inactive)
23,O=c1c2ccccc2ccc2ccccc12,33.8 µM (inactive)
24,COc1cc(CNC(C)(C)CO)cc(Br)c1OCc1ccc(Cl)cc1,19.7 µM
25,Clc1ccc(-n2nnc(-c3cccnc3)n2)cc1Cl,> 100 µM (inactive)

row,Compound,IC50
1,Clc1ccc(C=Cc2ccccn2)cc1,10.4 µM
2,Fc1ccc(-n2nnc(-c3cccnc3)n2)cc1,24.8 µM (inactive)
3,O=C(Nc1nc(-c2ccc(Cl)s2)cs1)c1ccco1,15.5 µM
4,O=C(Nc1nccs1)c1ccc2ccccc2c1,23.8 µM (inactive)
5,Brc1ccc2oc(-c3ccn[nH]3)cc2c1,10.3 µM
6,O=C(Nc1nc(SCc2ccc(F)cc2)ns1)c1ccco1,> 100 µM (inactive)
7,O=C(Nc1nc(-c2ccccc2)cs1)c1cccs1,21.9 µM (inactive)
8,O=C(/C=C/c1cccs1)c1ccc(Br)cc1,20.8 µM (inactive)
9,O=C(Nc1ccc(Cl)c(Cl)c1)c1ccco1,45.4 µM (inactive)
10,Cc1ccc(C=Cc2ccccn2)cc1,> 100 µM (inactive)
11,CCN(CC)Cc1ccc(NC(=O)c2sc3cc(Cl)ccc3c2Cl)cc1,13.8 µM
12,Brc1ccc(CSc2nnc(-c3ccco3)o2)cc1,7.32 µM
13,N/C(=N\OC(=O)c1cc(Br)ccc1Cl)c1ccccn1,53.5 µM (inactive)
14,Cc1ccc(N=C/C(C(=O)C(F)(F)F)=C(\O)c2ccco2)cc1Cl,14.3 µM
15,O=C(Nc1ccc(OC(F)F)c(Cl)c1)c1cccc(OC(F)F)c1,> 100 µM (inactive)
16,CCOC(=O)Nc1nc(-c2ccc(F)cc2F)cs1,18.1 µM
17,Brc1ccc(-c2cn3ccccc3n2)s1,18.1 µM
18,COc1cc(CNC(C)c2ccccc2)cc(Br)c1OCc1ccc(F)cc1 (stereo unspecified),9.1 µM
19,COc1cc(SC)ccc1C(=O)Nc1nccs1,> 100 µM (inactive)
20,O=[N+]([O-])c1ccc2nc(N3CCCC3)sc2c1,> 100 µM (inactive)
21,Clc1ccc(Cn2cc(Br)cn2)cc1Cl,30.6 µM (inactive)
22,Clc1ccc2nc(-c3ccc(Br)s3)cn2c1,21.6 µM (inactive)
23,O=C(c1cccs1)c1ccc(-c2cccs2)s1,9.1 µM
24,N=C1C=CC(=C(c2ccc(N)cc2)c2ccc(N)cc2)C=C1,20.2 µM (inactive)
25,O=[N+]([O-])c1ccc(NCc2ccc(Cl)cc2)nc1,18.1 µM

row,Compound,IC50
1,O=[N+]([O-])c1cccc(-c2c(-c3ccccc3)ncc3cc(F)ccc23)c1,> 100 µM (inactive)
2,CCOc1cc(CNC2CCCC2)cc(Cl)c1OCc1ccccc1,22.4 µM (inactive)
3,c1ccc(-c2nc3cc4ccccc4cc3[nH]2)nc1,16.1 µM
4,Cc1ccc2nc(-c3ccc(NC(=S)NC4CC(C)(C)NC(C)(C)C4)cc3)sc2c1,15.9 µM
5,O=C(Nc1nc(-c2ccc(Cl)s2)cs1)c1ccccc1,13.2 µM
6,O=C1/C(=C/c2cccs2)CCc2ccccc21,34.3 µM (inactive)
7,O=C(/C=C/c1ccccc1)/C=C/c1ccccc1,16.2 µM
8,Clc1ccccc1-c1nc(-c2ccncc2)no1,18.4 µM and > 100 µM (inactive)
9,Fc1ccc(-n2nnc(-c3nccs3)n2)cc1,24.4 µM (inactive)
10,Brc1ccc(-c2nc(-c3ccccn3)no2)o1,35.8 µM (inactive)
11,Cn1c(=O)c2c(-c3ccccc3)n(-c3ccc(N)cc3)cc2n(C)c1=O,23.5 µM (inactive)
12,CC1(C)c2ccccc2C(=O)c2ccccc21,> 100 µM (inactive)
13,Fc1ccc(Nc2cccc3nccnc23)cc1,47.2 µM (inactive)
14,O=C(/C=C/Nc1ccc(Br)cc1F)c1ccco1,2.19 µM
15,CCSc1nnc(-c2ccc(Cl)cc2Cl)o1,58.5 µM (inactive)
16,c1ccc(SCc2cc(-c3ccccc3)no2)cc1,12.8 µM
17,Clc1ccc(-c2nc3cc(CN4CCCCC4)ccc3o2)cc1,87.7 µM (inactive)
18,c1ccc(N2CCN(c3cnc4ccccc4n3)CC2)cc1,> 100 µM (inactive)
19,Brc1ccc(-c2nc(-c3ccccc3)no2)o1,2.54 µM
20,CC(C)c1ccc(C(=O)Nc2ccc(CN3CCOCC3)cc2)cc1,4.79 µM
21,c1ccc(Nc2nc(-c3cccs3)cs2)nc1,21.7 µM (inactive)
22,Cc1nc2ccccc2cc1OCc1ccc(F)cc1,24 µM (inactive)
23,O=C(C=Cc1ccco1)c1ccc2ccccc2c1,31.7 µM (inactive)
24,C=CCSc1nnc(-c2ccc(Cl)cc2Cl)o1,25.2 µM (inactive)
25,Fc1ccc(OCc2nc(-c3cccs3)no2)cc1,31.5 µM (inactive)

row,Compound,IC50
1,Fc1ccc(Cn2nnc(-c3ccc(CN4CCOCC4)cc3)n2)cc1,19.9 µM
2,O=[N+]([O-])c1ccc(COc2ccc(CN3CCCC3)cc2)cc1,8.62 µM
3,O=C(Nc1nc(-c2ccc(Cl)s2)cs1)c1cccs1,6.63 µM
4,Brc1ccc(-c2nnc(-c3cccnc3)o2)cc1,> 100 µM (inactive)
5,O=[N+]([O-])c1ccc2cn(-c3ccccc3)nc2c1,2.81 µM
6,c1csc(-c2nc(-c3ccncc3)no2)c1,36.1 µM (inactive)
7,O=C(Nc1ccc(SC(F)F)cc1)c1ccccc1F,20.3 µM (inactive)
8,COC(=O)c1cccc(CC2(C)C(=O)Nc3ccc(OC(F)(F)F)cc32)c1 (stereo unspecified),> 100 µM (inactive)
9,CC(=O)NS(=O)(=O)c1ccc(Nc2ccc([N+](=O)[O-])c3nonc23)cc1,57.9 µM (inactive)
10,COc1cc(CNC2CCCC2)cc(Cl)c1OCc1ccc(F)cc1,11.8 µM
11,CCOc1ccc(-c2nc(-c3cccnc3)no2)cc1,19 µM
12,O=C(Nc1ccc(Cl)cn1)c1ccccc1F,20.6 µM (inactive)
13,Fc1ccccc1-c1nc(-c2ccncc2)no1,38.6 µM (inactive)
14,O=C(/C=C/Nc1ccc(F)c(Cl)c1)c1ccco1,16.7 µM
15,O=C(/C=C/Nc1ccc(F)cc1F)c1cccs1,5.04 µM
16,Cc1c(N2C(=O)/C(=C\c3ccc(N(C)C)cc3)N(C)C2=S)c(=O)n(-c2ccccc2)n1C,16.9 µM
17,COc1c(C(=O)Nc2nccs2)ccc2ccccc12,41.8 µM (inactive)
18,c1ccc(-c2csc(-c3ccncc3)n2)cc1,12.6 µM
19,O=[N+]([O-])c1ccc2nc(-c3ccccc3)oc2c1,3.84 µM
20,Fc1ccc(-c2csc(-c3ccncc3)n2)cc1,5.86 µM
21,O=C(/C=C/c1ccc(Cl)cc1Cl)Nc1ccc(CN2CCOCC2)cc1,> 100 µM (inactive)
